Results taken from paper PMC6900558 (Acta Pharmaceutica Sinica. B, 2019).
Read-outs that look alike come from different tables or passages of the source.

Experiments:
[1] = biological target: T1, σ1R (Mus musculus, UniProt O55242); test: In vivo PET-CT imaging with [^11C]HCC0929 in mice brain; parameters: species or system mice (BALB/c)
[2] = Experimental logD; type: physicochemical; conditions: PBS (aqueous phase; partition solvent not stated), pH 7.4
[3] = biological target: T2, guinea pig σ1 receptor (Cavia porcellus, UniProt Q60492); test: Ex vivo σ1 receptor binding assay; conditions: for Selectivity (σ2R/σ1R): ratio of σ2R Ki to σ1R Ki
[4] = biological target: T1, σ1R; test: In vivo PET-CT imaging with [^11C]HCC0923 in mice brain; parameters: species or system mice (BALB/c); conditions: self-blocking, 12.5 mg/kg i.v. 5 min before tracer
[5] = biological target: T2, guinea pig σ1 receptor; conditions: read-out: σ1R Kd or Ki; Kd or Ki not specified; cited from earlier work
[6] = biological target: guinea pig σ2 receptor; conditions: read-out: σ2R Ki; cited from earlier work

T2 sequence (Q60492 whole entry): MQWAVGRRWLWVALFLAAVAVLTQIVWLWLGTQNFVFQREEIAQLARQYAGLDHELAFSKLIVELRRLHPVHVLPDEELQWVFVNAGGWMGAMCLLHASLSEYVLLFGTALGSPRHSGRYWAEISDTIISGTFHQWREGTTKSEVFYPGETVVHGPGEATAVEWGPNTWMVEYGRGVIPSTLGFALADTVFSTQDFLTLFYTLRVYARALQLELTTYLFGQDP
T1 sequence (O55242 whole entry): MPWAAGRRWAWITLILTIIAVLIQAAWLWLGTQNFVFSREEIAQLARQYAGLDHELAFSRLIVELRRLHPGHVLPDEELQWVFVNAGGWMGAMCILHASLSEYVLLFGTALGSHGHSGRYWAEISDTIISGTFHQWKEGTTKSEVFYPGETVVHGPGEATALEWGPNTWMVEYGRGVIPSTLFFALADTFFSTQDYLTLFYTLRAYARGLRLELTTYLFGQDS

| reduction in [^11C]HCC0929 mice brain uptake ([1]; self-blocking, 2.88 mg/kg i.v. 5 min before tracer) [%] | logD [2] | Ki [3] [nM] | Selectivity (σ2R/σ1R) [3] | reduction in [^11C]HCC0923 brain uptake [4] [%] | reduction of [^11C]HCC0929 binding in mice brain ([1]; pretreatment 2.99 mg/kg i.v., change between peak at ∼5 min and lowest at 60 min) [%] | Structure (SMILES) | Ki [5] [nM] | Ki [6] [nM] |
| --- | --- | --- | --- | --- | --- | --- | --- | --- |
| ~58 | 1.73 ± 0.08 | 5.6 ± 0.7 | 272.8 |  |  | CN1CCN(CCCOc2ccc(=O)n(-c3ccc(Cl)c(Cl)c3)n2)CC1 [compound 15, 2-(3,4-Dichlorophenyl)-6-(3-(4-methylpiperazin-1-yl)propoxy)pyridazin-3(2H)-one] |  |  |
|  | 0.89 ± 0.06 | 10.3 ± 1.1 | 111.3 | ~54 |  | COc1ccc(-n2nc(OCCCN3CCCCC3)ccc2=O)cc1 [compound 13, 2-(4-Methoxyphenyl)-6-(3-(piperidin-1-yl)propoxy)pyridazin-3(2H)-one] |  |  |
|  |  |  |  |  | ~67 | CCCN1CCC=C(c2cc(-c3ccc(C)cc3)no2)C1 [PD 144418] | 4.3 ± 0.1 | 1380 ± 179 |
